Values of other authors as cited in patent US11576952B2, “Injectable solution at pH 7 comprising at least one basal insulin for which the pI is from 5.8 to 8.5 and a co-polyamino acid bearing carboxylate charges and hydrophobic radicals” (ADOCIA, priority 2017, dated 2023).

Details: background description

Substance: insulin glargine
- Period over which the blood sugar lowering effect is quasi-constant: 24 h
